pIC50: −log10 of the molar value.
Tested on: RAW264.7
Assay: Antiinflammatory activity in mouse RAW264.7 cells assessed as inhibition of LPS-induced nitric oxide production after 18 hrs by Griess reagent method
Type: functional, cell-based
Settings: RAW264.7, 18 h

`COc1cc([C@@H]2OC[C@@H]3[C@H]2CO[C@@H]3c2ccc(OC34OCOC3=CC(=O)[C@@H]([C@@H]3OC[C@H]5[C@@H]3CO[C@H]5c3ccc(OC)c(OC)c3)[C@@H]4O)c(OC)c2)ccc1O` (some centres not stated) [ZANTHPODOCARPIN B] was tested, and the pIC50 was 4.92.

`COc1ccc([C@@H]2OC[C@@H]3[C@H]2CO[C@H]3[C@@H]2C(=O)C=C3OCOC3(Oc3ccc([C@H]4OC[C@@H]5[C@H]4CO[C@H]5c4ccc5c(c4)OCO5)cc3OC)[C@H]2O)cc1OC` (some centres not stated) [ZANTHPODOCARPINS A] gave a pIC50 of 5.27.

From ChEMBL document CHEMBL1641408, “Two dimeric lignans with an unusual α,β-unsaturated ketone motif from Zanthoxylum podocarpum and their inhibitory effects on nitric oxide production” (Bioorg Med Chem Lett, 2011)
